How the values were obtained:
[1] = molecular target: T1, recombinant His-tagged HIV-1 integrase (Human immunodeficiency virus type 1 group M subtype B, UniProt P04585); assay: HIV-1 integrase 3′-processing assay, oligonucleotide-based
integrase = molecular target: T2, integrase (Human immunodeficiency virus type 1 group M subtype B, UniProt P04585); assay: kinetic cleavage assay, conversion of initial stable complex into cleaved product; assay type: biochemical, HIV-1; conditions: in the presence of 50 μM compound, added after preincubation with dextran sulfate
T2 construct: encoding HIV-1 IN (strain HTLV III); made in house; host or cells: E. coli PC1 (BL21(DE3)(pLysS) ΔendA::TcR)
Protocol: When dextran sulfate with a molecular weight of 5,000 was added at a final concentration of 0.3 μM, further binding of integrase to the oligonucleotide was blocked. At several periods of time, 5 μl aliquots were taken and the reaction was stopped using 5 μl formamide loading buffer (having the same composition as above). The rate constant for the conversion of ISC into the cleaved product can be calculated using the formula: A-Be^−kt. In order to examine the inhibitory effect of compound H on 3′-processing, we repeated the same experiment in the presence of 50 μM compound (added after preincubation, together with dextran sulfate) and compared the rate constants: In the absence of compound H, it was calculated at 0.152±0.038 min^−1 in its presence at 0.147±0.025 min^−1. This quite similar value rules out that compound H directly affects the catalysis of 3′-processing.

[2] = molecular target: T1, recombinant His-tagged HIV-1 integrase; assay: HIV-1 integrase overall integration assay, oligonucleotide-based
Protocol: Reactions were started by the addition of the enzyme. Inhibitors were incubated shortly with the reaction components before the addition of integrase. Reactions were allowed to proceed at 37° C. for 7 minutes and stopped by the addition of formamide loading buffer (95% formamide, 30 mM ethylenediamine tetraacetic acid, 0.1% xylene cyanol, 0.1% bromophenol blue, 0.1% sodium dilaurylsulfate SDS). In the overall integration assay, this reaction was allowed to proceed for 60 minutes before the addition of a formamide dye.

HIV-1 integrase = molecular target: T3, HIV-1 integrase (Human immunodeficiency virus type 1 group M subtype B, UniProt P04585); assay: HIV-1 integrase binding assay, biosensor (BIAcore); conditions: preincubation of integrase with 93 μM compound, 37° C.
T3 construct: HIV-1 integrase (100 μl of a 33 μM solution)
Protocol: Binding experiments were carried out using biosensor technology on BlAcore2000 (Biacore) and sensor chips SA™ with pre-immobilized streptavidin. The binding experiment was carried out at 37° C. following the procedures of the manufacturer. The binding buffer B (20 mM HEPES at pH 7.5) contained 50 mM NaCI, 10 mM MgCl2 and 5 mM DTT. First, the 3′-biotinylated oligonucleotide 5′-[…]-3′ was bound to the sensor chip. Subsequently, the complementary 35-mer 5′-[…]-3′ was hybridized to the captured oligonucleotide, resulting in an integrase recognition sequence at the free end. HIV-1 integrase (100 μl of a 33 μM solution) diluted 10-fold in dilution buffer (10 mM Tris.HCl, pH7.5/750 mM NaCl/10% glycerol/1 mM β-mercaptoethanol) and another 10-fold in buffer B, was injected at a final concentration of 330 nM with a flow rate of 10 μl/minute passing first a blank channel and then the channel with the specific oligonucleotide. A specific adsorption in the blank channel was subtracted.

[3] = system: HIV-1-derived vectors pseudotyped with the VSV-G envelope; assay: microbe, parasite or virus in culture; assay type: cell-based; conditions: Human immunodeficiency virus 1, HEK-293T, read-out: EC50 inhibition of transduction
HIV-2 (ROD) = assay: inhibition of virus-induced cytopathicity in MT-4 cells, HIV-2 (ROD); assay type: cell-based; conditions: Human immunodeficiency virus 2, MT4, 120 h, read-out: EC50 HIV-2 ROD
HIV-1 L1 = assay: inhibition of virus-induced cytopathicity in MT-4 cells, HIV-1 clinical isolate L1; assay type: cell-based; conditions: Human immunodeficiency virus 1, MT4, 120 h, read-out: EC50 HIV-1 L1
HIV-1 L2 = assay type: cell-based
HIV-1(IIIB) = assay: time of addition experiment, viral p24 antigen production; assay type: cell-based; conditions: MT-4 cells, m.o.i. 0.5, 250 μM, p24 at 31 hours post-infection
Protocol: A time of addition experiment was carried out in order to investigate which step of the replicative cycle was inhibited by compound H. Briefly, this experiment determines how long the addition of an anti-HIV compound can be postponed before losing its antiviral activity in the viral replication cycle. MT-4 cells were infected with HIV-1(IIIB) at a multiplicity of infection (m.o.i.) of 0.5 in order to synchronize all steps of viral replication and the various antiviral test compounds were added at different times (ranging from 0 up to 26 hours) after infection. Viral p24 antigen production was determined 31 hours post-infection (using HIV-1 p24 Core Profile ELISA, Du Pont, Dreieich, Germany) and is expressed as the log10 of the p24 Ag content in pg/ml. Reference compounds with a known mode of action were included in this experiment. Dextran sulfate, a polyanion, interferes with binding of the virus to the cell. The nucleoside analogue AZT inhibits the reverse transcription process. Ritonavir is a proteolytic cleavage inhibitor. […]. Compound H was added at 250 μM. In FIG. 1 showing the results of this experiment, the following symbols were used: (●) for control, (▴) for dextran sulfate (20 μM), (▪) for AZT (1.9 μM), (▪) for ritonavir (2.8 μM) and (*) for compound H (250 μM).

HIV-1 = assay: combined inhibitory effect on HIV-1-induced cytopathic effect, isobologram method; assay type: cell-based; conditions: combination with nevirapine, MT-4 cells, FIG. 4
Protocol: The antiviral effect of compound H was tested in combination with the nucleoside reverse transcriptase inhibitor zidovudine, the non-nucleoside reverse transcriptase inhibitor nevirapine and the protease inhibitor nelfinavir.
The combined inhibitory effect on HIV-1-induced cytopathic effect was evaluated by the isobologram method, as previously described by Elion et al. in J. Biol. Chem. (1954) 208:477-488 and by Baba et al. in Antimicrob. Agents Chemother. (1984) 25:515-517.
EC50, as defined herein before, was used for calculating the fractional inhibitory concentration (hereinafter referred as FIC). When the minimum FIC index corresponding to the FIC of combined compounds (e.g., FICx+FICy) is equal to 1.0, the combination is said to be additive; when it is beween 1.0 and 0.5, the combination is by definition said to be subsynergistic, and when it is <0.5, the combination is by definition said to be synergistic. When the minimum FIC index is between 1.0 and 2.0, the combination is said to be subantagonistic and, when it is >2.0, the combination is defined as antagonistic.

[4] = molecular target: T1, recombinant His-tagged HIV-1 integrase; assay: HIV-1 integrase strand transfer assay, oligonucleotide-based
SIV (MAC251) = assay: inhibition of virus-induced cytopathicity in MT-4 cells, SIV (MAC251); assay type: cell-based, Simian immunodeficiency virus; conditions: Simian immunodeficiency virus, MT4, 120 h, read-out: EC50 SIV MAC251

Q: Which results are given for O=[N+]([O-])c1ccc(C2c3c(O)nc(S)nc3Oc3nc(S)nc(O)c32)cc1 [compound H, 5-(4-nitrophenyl)-2,8-dithiol-4,6-dihydroxy-5H-pyrano[2,3-d:6,5-d′]dipyrimidine]?
A: IC50 [1]: 0.9 ± 0.4 µM; inhibition of the 3-processing reaction ([1]; in words): inhibited; rate constant for the conversion of ISC into the cleaved product (integrase): 0.147 ± 0.025 min⁻¹; IC50 [2]: 0.3 ± 0.2 µM; inhibition of the overall integration reaction ([2]; in words): inhibited; binding of integrase to the DNA (HIV-1 integrase): completely abolished; EC50 [3]: 17 µM; EC50 (HIV-2 (ROD)): 30 ± 6.2 µM; EC50 (HIV-1 L1): 3.7 ± 1.8 µM; EC50 (HIV-1 L2; Human immunodeficiency virus 1): 6 ± 2.3 µM; fold increase in EC50 (HIV-1 L2; L2 versus wild type strain L1): 1.6; time the addition can be postponed after virus infection (HIV-1(IIIB)): 6 h; added values FICnevirapine+FICV-165 (HIV-1): below 0.5; IC50 [4]: 16.1 ± 10.7 µM; effect on the DNA strand transfer reaction ([4]; in words): strong inhibitory effect; EC50 (SIV (MAC251)): 5.5 ± 0.9 µM
